Test results reported in patent publication US9259470B2, “Serine/threonine kinase inhibitors” (Array BioPharma Inc., priority 2012, dated 2016).

System: PMA-stimulated P90RSK(Ser380) phosphorylation in HepG2 cells
Assay: Cellular P90RSK(Ser380) Phosphorylation Assay (Biological Example 2)
Format: cell-based
Details: read-out: Biological Example 2 IC50, 1.5 hours compound incubation, PMA 100 ng/mL 30 minutes, normalized to GAPDH, single assay or mean of multiple assays
Procedure: Inhibition of PMA-stimulated P90RSK(Ser380) phosphorylation was determined by the following in vitro cellular mechanistic assay, which comprises incubating cells with a compound for 1.5 hours and quantifying fluorescent pP90RSK(Ser380) signal on fixed cells and normalizing to GAPDH signal.
HepG2 cells were obtained from ATCC and grown in DMEM supplemented with 10% fetal bovine serum. Cells were plated in 96-well plates at 35,000 cells/well and allowed to attach overnight at 37° C./5% CO2. Diluted compounds were then added at a final concentration of 0.5% DMSO. After 1.5 hours compound incubation, cells were stimulated with the addition of phorbol 12-myristate 13-acetate (“PMA”) at a final concentration of 100 ng/mL; the PMA stimulation was a 30-minute incubation at 37° C./5% CO2. After the 30-minute PMA stimulation, cells were washed with phosphate buffered saline (“PBS”) and fixed in 3.7% formaldehyde in PBS at room temperature for 15-20 minutes. This was followed by another wash in PBS and then permeabilization in 100% MeOH at room temperature for 10-15 minutes. Following the permeabilization incubation, cells were washed in PBS/0.05% Tween-20, followed by a block in Odyssey blocking buffer (LI-COR Biosciences) for at least 1 hour. […] Cells were then washed and analyzed for fluorescence at both wavelengths using the Odyssey Infrared Imaging System (LI-COR Biosciences). […]

SMILES: Cc1cc(Nc2nccc(-c3ccn([C@H](CO)c4ccc(Cl)c(F)c4)c(=O)c3)n2)n(C)n1 [Example 167, (S)-1-(1-(4-chloro-3-fluorophenyl)-2-hydroxyethyl)-4-(2-((1,3-dimethyl-1H-pyrazol-5-yl)amino)pyrimidin-4-yl)pyridin-2(1H)-one]
- IC50: 100 nM
